# Calls of active or inactive are those of the source. No cut-off for these calls is given here.
# Experiments:
# [1] = system: Nucleic Acid; test: Inhibition of miR-4644 in human HeLa cells assessed as reduction in luminescence at 4 uM after 24 hrs by luciferase reporter gene assay relative to control; format: cell-based
# [2] = system: Nucleic Acid; test: Inhibition of miR-4644 in human MCF7 cells assessed as reduction in luminescence at 4 uM after 24 hrs by luciferase reporter gene assay relative to control; format: cell-based
# [3] = system: MCF7; test: Ratio of IC50 for HEK cells to IC50 for human MCF7 cells
# [4] = system: MCF7; test: Cell cycle arrest in human MCF7 cells assessed as accumulation at G2/M phase at 4 uM after 24 hrs using propidium iodide staining by flow cytometry (reference value: 11%); format: functional
# [5] = Cytotoxicity against HEK cells; format: cell-based; details: human, hek293
# [6] = system: Nucleic Acid; test: Inhibition of pri-miR-4644 expression in human MCF7 cells at 4 uM after 10 mins by qRT-PCR analysis; format: cell-based
# [7] = system: Drosophila; test: Inhibition of miR-14 in transgenic Drosophila larvae assessed as increase in fluorescence in wing disc at 50 uM, po by EGFP reporter gene assay using confocal microscopy relative to control; format: functional, organism-based
# [8] = system: MCF7; test: Ratio of IC50 for human MCF10A cells to IC50 for human MCF7 cells
# [9] = system: MCF-10A; test: Cytotoxicity against human MCF10A cells; format: cell-based
# [10] = system: Nucleic Acid; test: Inhibition of miR-4644 in human HeLa cells assessed as increase in luminescence at 4 uM after 24 hrs by luciferase reporter gene assay relative to control; format: cell-based
# [11] = system: Nucleic Acid; test: Inhibition of miR14 in Drosophila melanogaster S2 cells at 4 uM after 24 hrs by luciferase reporter gene assay; format: cell-based
# [12] = system: Drosophila; test: Down regulation of miR-14 in Drosophila larvae at 50 uM, po by qRT-PCR analysis relative to control; format: functional
# [13] = system: MCF7; test: Cell cycle arrest in human MCF7 cells assessed as accumulation at S phase at 4 uM after 24 hrs using propidium iodide staining by flow cytometry (reference value: 9%); format: functional
# [14] = system: Drosophila; test: Down regulation of pri-miR-14 in Drosophila larvae at 50 uM, po by qRT-PCR analysis relative to control; format: functional, organism-based
# [15] = system: Nucleic Acid; test: Inhibition of miR-4644 in human MCF7 cells assessed as increase in luminescence at 4 uM after 24 hrs by luciferase reporter gene assay relative to control; format: cell-based
# [16] = system: Drosophila; test: Down regulation of mature-miR-14 in Drosophila larvae at 50 uM, po by qRT-PCR analysis relative to control; format: functional, organism-based
# [17] = system: Drosophila; test: Down regulation of miR-3 in Drosophila larvae at 50 uM, po by qRT-PCR analysis relative to control; format: functional, organism-based
# [18] = system: Nucleic Acid; test: Inhibition of Pri-miR-4644 expression in human HeLa cells at 4 uM after 10 mins by qRT-PCR analysis; format: cell-based
# [19] = system: Nucleic Acid; test: Inhibition of mature-miR-4644 expression in human MCF7 cells at 4 uM after 10 mins by qRT-PCR analysis; format: cell-based
# [20] = system: Nucleic Acid; test: Inhibition of miR-30A in human HeLa cells assessed as increase in luminescence at 4 uM after 24 hrs by luciferase reporter gene assay relative to control; format: cell-based
# [21] = system: MCF7; test: Cell cycle arrest in human MCF7 cells assessed as accumulation at G0/G1 phase at 4 uM after 24 hrs using propidium iodide staining by flow cytometry (reference value: 79%); format: functional
# [22] = system: Drosophila; test: Inhibition of miR-14 in transgenic Drosophila larvae expressing EGFP assessed as increase in EGFP protein expression in wing disc at 50 uM, po by Western blot analysis relative to control; format: functional, organism-based
# [23] = system: Nucleic Acid; test: Inhibition of mature-miR-4644 expression in human HeLa cells at 4 uM after 10 mins by qRT-PCR analysis; format: cell-based
smiles,measurement,setting,value
Cc1cc(C)c(C2CC(=O)c3ccccc3N2)c(C)c1 (stereo unspecified),inhibition,[1],56%
same,inhibition,[2],21%
O=C1CC(c2ccc(Br)cc2)Nc2ccccc21 (stereo unspecified),Ratio IC50,[3],2
same,Activity,[4],7%
same,Activity,[5],Non-toxic
same,inhibition,[6],20%
same,inhibition,[7],Active
same,Ratio IC50,[8],3
same,Activity,[9],Non-toxic
same,fold change (FC),[10],3
same,inhibition,[11],Active
same,fold change (FC),[12],5
same,Activity,[13],9%
same,Activity,[14],Active
same,fold change (FC),[15],3
same,Activity,[16],Active
same,Activity,[17],inactive
same,inhibition,[18],20%
same,inhibition,[19],20%
same,inhibition,[20],inactive
same,Activity,[21],83%
same,inhibition,[22],Active
same,inhibition,[23],20%
O=C1CC(c2ccc(-c3ccoc3)cc2)Nc2ccccc21 (stereo unspecified),inhibition,[1],56%
same,inhibition,[2],21%
O=C1CC(c2c[nH]c3ccccc23)Nc2ccccc21 (stereo unspecified),inhibition,[1],56%
same,inhibition,[2],21%
O=C1CC(c2ccccc2)Nc2ccccc21 (stereo unspecified),inhibition,[10],inactive
same,inhibition,[15],inactive
CC(=O)Oc1ccc(C2CC(=O)c3ccccc3N2)c(OC(C)=O)c1 (stereo unspecified),inhibition,[1],56%
same,inhibition,[2],21%
Cc1ccc(S(=O)(=O)Oc2ccc(C3CC(=O)c4ccccc4N3)c(OS(=O)(=O)c3ccc(C)cc3)c2)cc1 (stereo unspecified),inhibition,[1],56%
same,inhibition,[2],21%
O=C1CC(c2ccc(O)cc2O)Nc2ccccc21 (stereo unspecified),Ratio IC50,[3],2
same,Activity,[4],7%
same,Activity,[5],Non-toxic
same,inhibition,[6],20%
same,inhibition,[7],Active
same,Ratio IC50,[8],3
same,Activity,[9],Non-toxic
same,fold change (FC),[10],3
same,inhibition,[11],Active
same,fold change (FC),[12],5
same,Activity,[13],8%
same,Activity,[14],Active
same,fold change (FC),[15],3
same,Activity,[16],Active
same,Activity,[17],inactive
same,inhibition,[18],20%
same,inhibition,[19],20%
same,inhibition,[20],inactive
same,Activity,[21],85%
same,inhibition,[22],Active
same,inhibition,[23],20%
COc1ccc(C2CC(=O)c3ccccc3N2)cc1 (stereo unspecified),inhibition,[10],inactive
same,inhibition,[15],inactive

# — ChEMBL document CHEMBL1938245, “aza-Flavanones as potent cross-species microRNA inhibitors that arrest cell cycle” (Bioorg Med Chem Lett, 2012)
